The results in this text go back to PMC6832960, “The Fragment-Based Development of a Benzofuran Hit as a New Class of Escherichia coli DsbA Inhibitors” (Molecules, 2019).

The term melting point denotes the temperature, or range, at which the solid turns liquid. One may read the Kd as the concentration at which binding is half-saturated.

For data set [1], the target named is T1, EcDsbA (Escherichia coli, UniProt P0AEG4).
T1 construct: made in house; protein recovered from the periplasm of the expressing cells
The data set can be described thus: Compound soaking into EcDsbA crystals and X-ray diffraction. As to conditions: crystals soaked with compound at 10 mM (5% DMSO) for 3–6 h. The format is binding. From the text: The synthesised analogues were soaked into crystals of EcDsbA and X-ray diffraction data was collected for each analogue in order to determine their site of binding. […] The carboxy moiety of 15 was oriented towards the left-hand side of the binding groove, where more polar residues are located. The phenyl ring of the aniline moiety occupied the hydrophobic end of the binding pocket with the nitrogen atom of the amine linker positioned in close proximity to Gln35. […] Although anisidine 16 was occupying a larger region of the EcDsbA binding groove, the shift appeared to have interrupted the π-stacking interactions the benzofuran was making with the His32 side chain previously (Figure 1B and Figure S1).
EcDsbA was crystallised as previously described. Briefly, 1 µL of 30 mg/mL EcDsbA was mixed with an equal volume of crystallisation buffer (11–13% PEG8000, 5–7.5% glycerol, 1 mM CuCl2, 100 mM, sodium cacodylate pH 6.1) and equilibrated against 500 µL of reservoir buffer at 20 °C using hanging drop vapour diffusion. For compound soaking, crystals were transferred into 2 µL drops of 24% PEG8000, 22% glycerol, and 100 mM sodium cacodylate (pH 6.1) containing a compound of interest at the final concentration of 10 mM (5% DMSO) and were incubated for 3–6 h. Crystals were mounted on loops and flash-cooled in liquid nitrogen.
Datasets were collected at the Australian synchrotron on MX1 and MX2 beamlines using the Blue-Ice software (Irvine, CA, USA). MX1 beamline was equipped with an ADSC Quantum 210r detector and MX2 with an ADSC Quantum 315r detector. All datasets were indexed and integrated with iMOSFLM [32] or XDS [33]—and scaled using AIMLESS [34, 35] or SCALA [36]. Phasing was performed by molecular replacement with Phaser using the previously solved structure of EcDsbA as a search model (PDB code 1FVK). The final structure was obtained after several rounds of manual model building using Coot and refinement in phenix.refine. Structures, factors and coordinates have been deposited in the Protein Data Bank (PDB; http://www.pdb.org) under the accession codes of 6PMF, 6POQ, 6POH, 6PML, 6PVY, 6POI, and 6PVZ.

The target in data set [2] is T1, EcDsbA. Put plainly: CPMG ligand-detected NMR binding. As to conditions: compound 500 µM, unlabelled EcDsbA 10 µM, 298 K, spin-lock 350 ms. An excerpt:
(§1) To validate the binding of benzofuran analogues, three ligand-detected NMR methods, saturation-transfer difference (STD), Carr–Purcell–Meiboom–Gill (CPMG), and water–ligand observed via gradient spectroscopy (waterLOGSY), were employed to detect protein-ligand binding between the benzofurans and EcDsbA (Figure 2C). These experiments were designed as a primary screening tool to select analogues to undergo further affinity evaluation and prioritise compounds for crystal soaking. […] In a good agreement with this finding, eight out of nine benzofurans that passed all three ligand-detected experiments have their co-crystal structures successfully solved; in contrast, five compounds that failed two ligand-detected experiments only have one co-structure solved (Table 2).
(§2) For ligand-detected NMR spectroscopy, two samples (compound alone and compound + protein) were prepared for each compound. Unlabelled EcDsbA was prepared at 10 µM in a buffer of 50 mM sodium phosphate, pH 6.8, 25 mM NaCl, 100 µM 4,4-dimethyl 4-silapentane-1-sulfonic acid (DSS), and 10% ^2H2O. Compound was added to the protein sample to achieve final concentration of 500 µM (2% ^2H6-DMSO). ^1H 1D spectrum was acquired for each compound at 500 µM as a reference spectrum. All ligand-detected NMR experiments (STD, CPMG, and waterLOGSY) were acquired at 298 K on a Bruker Avance III 600 MHz NMR spectrometer equipped with a 5 mm TXI CryoProbe (Bruker, Billerica, MA, USA). STD spectra were acquired with 3 s of saturation at 1 ppm (on-resonance) and 33.3 ppm (off-resonance). WaterLOGSY spectra were acquired for compound alone and compound + protein with a 0.52 s acquisition time, 3 s relaxation delay, and 3 s Nuclear Overhauser effect (NOE) mixing time. CPMG spectra for compound alone and compound + protein were acquired with a constant spin echo delay of 1 ms and spin-lock period of 350 ms. The data was analysed using Topspin3.5 (Bruker) and DSS was used to reference the spectra.

The target in data set [3] is T1, EcDsbA. Put plainly: waterLOGSY ligand-detected NMR binding. As to conditions: compound 500 µM, unlabelled EcDsbA 10 µM, 298 K.
From the text: as §1, §2

The target in data set [4] is T1, EcDsbA. The data set can be described thus: STD ligand-detected NMR binding. As to conditions: compound 500 µM, unlabelled EcDsbA 10 µM, 298 K.
From the text: as §1, §2

Data set [5] is described as follows: Solubility noted in the HSQC titration. The class given is physicochemical. As to conditions: HSQC titration buffer. An excerpt:
The ligand efficiency (LE) ranged from 0.15 to 0.24 kcal mol^−1 HAC^−1. […] Biophysical characterisation of 25 is illustrated in Figure 2. […] Alkyl substituents at C-6 flipped the compound orientation within the hydrophobic groove and disrupt the polar interaction between the imidazole side chain of His32 and carboxyl group of the compound present in the 25 co-structure (Figure 1C). […] It was evident in the co-crystal structure of p-anisidine 16 that the p-methoxy group had caused the benzofuran scaffold to shift further along the hydrophobic groove, possibly disrupting the π-stacking interaction with His32 and polar interactions with Gln164 (Figure 1B).

Data set [6] concerns the target T2, 15N-labelled EcDsbA (Escherichia coli, UniProt P0AEG4).
T2 construct: made in house; protein recovered from the periplasm of the expressing cells
The data set can be described thus: 2D 1H-15N HSQC chemical shift perturbation / titration. The class given is binding. As to conditions: for Ligand Efficiency: LE = −RTln(KD)/HAC, 298 K. On the procedure: Compounds that passed at least one ligand-detected NMR experiment were further validated by 2D ^1H-^15N heteronuclear single quantum coherence (HSQC) spectroscopy. In HSQC experiments, chemical shift perturbations (CSP) of backbone amide resonances of ^15N-labelled EcDsbA were measured upon addition of compound at 1 mM. […] In accordance with the crystal structure, the majority of the residues perturbed by 1 mM of benzofuran analogues in single-point HSQCs are located around the hydrophobic groove which is an important binding site for DsbA substrates (Figure 2A). […] Eight compounds produced large enough CSP (>0.04 ppm) to enable HSQC titration and KD determination.
For the 2D ^1H-^15N-HSQC titration experiment, 100 µM of ^15N-labelled EcDsbA in a buffer of 50 mM HEPES, pH 6.8, 50 mM NaCl, 2% ^2H6-DMSO, and 10% ^2H2O, was titrated with increasing concentrations of compounds ([…], 0.125, 0.25, 0.5, and 1 mM). Data were acquired on a Bruker 600 MHz spectrometer equipped with a 5 mm TXI CryoProbe and a Bruker 700 MHz spectrometer equipped with a 5 mm TXI CryoProbe. Data was processed by Topspin3.5 (Bruker) and analysed by Sparky (T. D. Goddard and D. G. Kneller, SPARKY 3, University of California, San Francisco (UCSF)). Weighted chemical shift perturbations (CSP) that were observed upon addition of compounds to EcDsbA were calculated using an Equation (1) in [41]: (1) CSP=ΔδH^2+(0.2×ΔδN)^2 where ΔδH and ΔδN denote the change in chemical shift of amide proton and nitrogen resonances upon addition of the compound. Equilibrium dissociation constants (KD) were determined by fitting the plot of CSP against compound concentrations using one site with ligand depletion model (Equation (2)): (2) CSP=CSPmax×[(KD+Pt+Lt)−((KD+Pt+Lt)^2−4×Pt×Lt)]/2×Pt where CSP is the measured CSP at a given concentration, CSPmax is the CSP observed at the saturating concentration of compound, and Pt and Lt are the total protein and compound concentrations. The ligand efficiency (LE) is calculated using the Equation (3) in [42]: (3) LE=−ΔG/HAC=−RTln(KD)/HAC where R is gas constant (1.9858775 cal K^−1 mol^−1), T is temperature (298 K), KD is equilibrium dissociation constant, and HAC is the number of heavy (non-hydrogen) atoms.

T1 sequence (P0AEG4 20-208): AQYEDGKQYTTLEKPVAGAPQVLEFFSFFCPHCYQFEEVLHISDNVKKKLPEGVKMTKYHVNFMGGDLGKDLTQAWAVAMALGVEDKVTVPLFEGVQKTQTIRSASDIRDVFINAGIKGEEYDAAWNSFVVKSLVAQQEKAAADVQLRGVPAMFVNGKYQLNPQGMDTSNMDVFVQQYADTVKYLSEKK
T2 sequence (P0AEG4 20-208): as above

For the compound `O=C(O)Cc1coc2cc(Nc3ccccc3)ccc12` [compound 15, 2-(6-(Phenylamino)benzofuran-3-yl)acetic acid], the melting point is 127 to 130 °C. Also, the “Crystal Structure in EcDsbA” value in data set [1] is recorded as “Yes”. The CPMG result in data set [2] is listed as “Pass”. In addition, in data set [3], the wLOGSY result is “Pass”. Moreover, the STD result in data set [4] is “Pass”. Besides, in data set [5], the solubility result is on record as “poor solubility”.
Regarding `O=C(O)Cc1coc2cc(Cc3ccccc3)ccc12` [compound 28, 2-(6-Benzylbenzofuran-3-yl)acetic acid], the melting point fell in the range of 124 to 127 °C. In data set [1], the “Crystal Structure in EcDsbA” value is “Yes”. For the same compound, the CPMG entry in data set [2] was “Pass”. Also, the wLOGSY result in data set [3] is recorded as “Pass”. In addition, the STD entry in data set [4] was “Pass”. For the same compound, in data set [6], the dissociation constant Kd stood at 341 ± 47 µM and the “Ligand Efficiency” value is listed as 0.24 kcal mol^−1 HAC^−1.
Consider `COc1ccc(CC(=O)NC(C(=O)O)c2coc3cc(Br)ccc23)cc1` (centres unmarked) [compound 48, 2-(6-Bromobenzofuran-3-yl)-2-(2-(4-methoxyphenyl)acetamido)acetic acid], for which the melting point was in the range of 159 to 161 °C. The “Crystal Structure in EcDsbA” value in data set [1] was “No”. For the same compound, the CPMG entry in data set [2] is reported as “Fail”. In data set [3], the wLOGSY result was “Pass”. In addition, the STD entry in data set [4] is listed as “Fail”. In addition, in data set [6], the Kd came out at 1350 ± 420 µM and the “Ligand Efficiency” value is 0.15 kcal mol^−1 HAC^−1.
Take `O=C(Cc1ccccc1F)NC(C(=O)O)c1coc2cc(Br)ccc12` (centres unmarked) [compound 49, 2-(6-Bromobenzofuran-3-yl)-2-(2-(2-fluorophenyl)acetamido)acetic acid]: the melting point is 209 to 211 °C. For the same compound, the “Crystal Structure in EcDsbA” value in data set [1] is listed as “No”. Moreover, the CPMG result in data set [2] was “Fail”. Besides, the wLOGSY result in data set [3] is recorded as “Pass”. Moreover, the STD result in data set [4] is reported as “Fail”. Besides, the Kd in data set [6] was above 1000 µM.
